Positions of bridges follow the written chain, without caps; N, C: chain ends. Non-standard residues stand in square brackets, D forms with d. Residues, ends and D or L forms follow the SMILES beside them. Primed or numbered codes have the meaning given here. *: point of attachment. X1 = CC1(C)C(/C=C/C=C/C=C/C=C2/N(CCC(=O)*)c3ccc4ccccc4c3C2(C)C)=[N+](CCC(=O)[O-])c2ccc3ccccc3c21; Cypate′ = not defined here

These results are taken from patent publication US12121596B2, “Near infrared fluorescent dyes, formulations and related methods” (Washington University, priority 2019, dated 2024).

One data set concerns heart. To be noted: in vivo.
Data set [1] has as its system breast cancer patient-derived xenograft. Description: In vivo NIR imaging of tumor retention. The arrangement: species or system mice. To be noted: for tumor retention: control experiments, patient-derived xenograft. How it is done:
To establish the various tumor models, nude, Balb/c, or C57BL6 mice were injected with 10^5-10^7 tumor cells subcutaneously on unilateral or bilateral flanks. In some cases, spontaneous tumor models were used. Animals injected subcutaneously with saline served as sham tumor controls. For near-infrared imaging, 100 μL volumes of 60 μM LS301 or cypate in PBS were injected intravenously by lateral tail vein, and animals were imaged using a Pearl Small Animal Imager (LI-COR Biotechnology, Lincoln, NE, USA) at the indicated time points. In some experiments, probes were formulated in 1% albumin in PBS. Animals were shaved using commercially available hair removal equipment and products before imaging. For experiments involving further tissue analysis, animals were anesthetized with isoflurane and euthanized by cervical dislocation under anesthesia. Organs were harvested by surgical dissection. For quantitative organ biodistribution studies, individual regions of interest were drawn around each organ of interest, and fluorescence was quantified using the Pearl Small Animal Imager software.
For orientation: A xenograft is tissue or cells of one species grown in another, often human tumour cells in immunodeficient mice.

The subject of data set [2] is lung (A549), breast (MDA-MB-231 and 4T1), and myeloid leukemia (HL60) cell lines. As to the kind of experiment: Cellular uptake in cancer cell lines, live-cell imaging. Format: cell-based. To be noted: A549, MDA-MB-231, 4T1, HL60. How it is done:
In general, cultured cancer cells were grown and incubated with the indicated amount of probe in Lab-Tek 8-chambered slides for the indicated time durations. Cells were washed with PBS at selected time points and underwent conventional slide preparation, ICC if indicated, and viewing under epifluorescence or confocal. For live-cell imaging of LS301, internalization at 37° C. in human dermal fibroblasts (Coriell Cell Technologies) and tumor cells including 4T1luc, MDA-MB-231, 5TGM, A549, and HL60 (ATCC) cells were cultured in appropriate media supplemented with 10% […] and penicillin/streptomycin and incubated at 37° C. in 5% CO2 incubator. The cells were grown on Lab-Tek 8-chamber slides (Nunc Inc. Rochester, NY) in the culture medium overnight before the experiment. The compounds were dissolved in 20% DMSO in […] PBS (pH 7.4) (Sigma, St. Louis, MO) for stocking solution and mixed with culture medium to reach the final concentration. Cells were incubated with 1 μM compounds in chamber slides at different time points at 37° C. After LS301 treatment, the culture media was removed and followed by adding culture media containing SYTO 13 nuclear dye from (Thermo Fisher Scientific, Waltham, MA) for 45 minutes at 37° C. For assessing cellular colocalization of LS301 with lipid rafts, the Vybrant AlexaFluor 488 Lipid Raft Labeling Kit (Thermo Fisher Scientific, Waltham, MA, USA) was used per the manufacturer's instructions. […]. LS301 and AlexaFluor 488 fluorescence were imaged using the cypate filter set (Ex/Em 750-800 nm/818-873 nm) and fluorescein isothiocyanate (FITC) filter set (Ex/Em 460-500/510-560 nm), respectively.

For a further data set, the system named is diverse tumors. As to the kind of experiment: LS838 fluorescence and tumor retention.
For a further data set, the system named is 4T1 luc/GFP cells. As to the kind of experiment: In vitro blocking of LS301 binding and internalization. Format: cell-based, murine. How it is done: For in vitro blocking studies of LS301, 4T1 luc/GFP cells were treated for 24 h with LS301 alone, blocking peptide LCKLSL plus LS301, scrambled blocking peptide LGKLSL plus LS301, or unlabeled LS301 analog LS637 plus LS301. Cells were prepared for confocal microscopy.

Regarding `COc1cccc2c1C(=O)c1c(O)c3c(c(O)c1C2=O)C[C@@](O)(C(=O)CO)C[C@@H]3O[C@H]1C[C@H](NC(=O)CC[N+]2=C(/C=C/C=C/C=C/C=C3/N(CCC(=O)N[C@@H]4CSSC[C@@H](C(=O)N[C@@H](CCCCN)C(=O)O)NC(=O)[C@@H]5CCCN5C(=O)[C@H](CO)NC(=O)[C@H](CC(=O)O)NC(=O)[C@H](CCCNC(=N)N)NC(=O)CNC4=O)c4ccc5ccccc5c4C3(C)C)C(C)(C)c3c2ccc2ccccc32)[C@H](O)[C@H](C)O1` [LS766, doxorubicin-cypate-cyclic(DCys-Gly-Arg-Asp-Ser-Pro-Cys)-Lys-OH], in the data set on heart, the “accumulation in the heart” value is given as “does not accumulate in the heart”.
Regarding “Cypate-cyclo(Cys-Arg-Gly-Asp-Ser-Pro-Cys)-Lys-OH ({Cypate′}-CRGDSPCK-OH; disulfide 1-7) [scrambled LS301 peptide analog]”, in data set [1], the tumor retention entry is recorded as “not retained”.
As to `CC1(C)C(/C=C/C=C/C=C/C=C2/N(CCC(=O)O)c3ccc4ccccc4c3C2(C)C)=[N+](CCC(=O)[O-])c2ccc3ccccc3c21` [Cypate], in data set [1], the tumor retention result is recorded as “not retained”. For the same compound, the “tumor retention with or without albumin formulation” value in data set [1] (in vivo) is given as “did not retain”. The “retention in cell lines” value in data set [2] is “only transient retention”.
As for `CC1(C)C(/C=C/C=C/C=C/C=C2/N(CCC(=O)N[C@@H]3CSSC[C@@H](C(=O)N[C@@H](Cc4ccc(O)cc4)C(=O)O)NC(=O)[C@@H]4CCCN4C(=O)[C@H](CO)NC(=O)[C@H](CC(=O)O)NC(=O)[C@H](CCCNC(=N)N)NC(=O)CNC3=O)c3ccc4ccccc4c3C2(C)C)=[N+](CCC(=O)[O-])c2ccc3ccccc3c21` [LS838, cypate-Cyclo(Cys-Gly-Arg-Asp-Ser-Pro-Cys)-Tyr-OH] (X1-[dC]GRDSPCY-OH; disulfide 1-7), in the data set with diverse tumors, the retention in tumors result is given as “selectively remains in diverse tumors without significant loss of fluorescence over time”.
For the compound LCKLSL, in the data set on 4T1 luc/GFP cells, the “effect on binding and internalization of LS301 in cells” value is “inhibited the binding and internalization of LS301”.
